Results taken from publication PMC9837997, “Purification, Characterization and anticancer activity of L-methionine γ-lyase from thermo-tolerant Aspergillus fumigatus” (Microbial Cell Factories, 2023).

Test system: T1, L-methionine γ-lyase (MGL); A. fumigatus L-methioninase
T1 construct: native extracellular enzyme purified from culture supernatant (heat treatment, Sephadex G-100); about 46 kDa on SDS-PAGE; homodimer
Assay: DTNB assay of released methanethiol at […] nm, Lineweaver-Burk plot
Format: biochemical, Aspergillus fumigatus
Conditions: 0.05 M potassium phosphate pH 7.0, 0.01 mM PLP, 0.25 mM DTNB, 30 °C; read-out: apparent Km

SMILES: CSCC[C@H](N)C(=O)O [L-methionine]
- Km: 20.6 mM
